From ChEMBL document CHEMBL1177694, “Multivalent catanionic GalCer analogs derived from first generation dendrimeric phosphonic acids” (Bioorg Med Chem, 2010)

What was measured:
[1] = tested on: Human immunodeficiency virus 1; experiment: Antiviral activity against HIV1 LAI infected in human CEM-SS cells assessed as inhibition of viral replication after 5 days by MTT assay; assay type: functional, organism-based; settings: Human immunodeficiency virus 1, LAI, 120 h
[2] = Therapeutic index, ratio of CC50 for human CEM-SS cells to IC50 for HIV1 LAI infected in human CEM-SS cells; assay type: cell-based; settings: CEM-SS cells (uninfected and infected with HIV1 LAI), read-out: Ratio CC50/IC50
[3] = Cytotoxicity against human CEM-SS cells after 5 days by MTT assay; assay type: cell-based

| Compound | IC50 [1] [nM] | selectivity ratio [2] | CC50 at 120 h [3] [nM] |
| --- | --- | --- | --- |
| CCCCCCCCCCCCCCCCNOC(CO)C(O)C(OC1OC(CO)C(O)C(O)C1O)C(O)CO.CCCCCCCCCCCCCCCCNOC(CO)C(O)C(OC1OC(CO)C(O)C(O)C1O)C(O)CO.CCCCCCCCCCCCCCCCNOC(CO)C(O)C(OC1OC(CO)C(O)C(O)C1O)C(O)CO.CCCCCCCCCCCCCCCCNOC(CO)C(O)C(OC1OC(CO)C(O)C(O)C1O)C(O)CO.CCCCCCCCCCCCCCCCNOC(CO)C(O)C(OC1OC(CO)C(O)C(O)C1O)C(O)CO.CCCCCCCCCCCCCCCCNOC(CO)C(O)C(OC1OC(CO)C(O)C(O)C1O)C(O)CO.CN(/N=C/c1ccc(OP2(Oc3ccc(/C=N/N(C)P(=S)(Oc4ccc(/C=C/P(=O)(O)O)cc4)Oc4ccc(/C=C/P(=O)(O)O)cc4)cc3)=NP(Oc3ccc(/C=N/N(C)P(=S)(Oc4ccc(/C=C/P(=O)(O)O)cc4)Oc4ccc(/C=C/P(=O)(O)O)cc4)cc3)(Oc3ccc(/C=N/N(C)P(=S)(Oc4ccc(/C=C/P(=O)(O)O)cc4)Oc4ccc(/C=C/P(=O)(O)O)cc4)cc3)=NP(Oc3ccc(/C=N/N(C)P(=S)(Oc4ccc(/C=C/P(=O)(O)O)cc4)Oc4ccc(/C=C/P(=O)(O)O)cc4)cc3)(Oc3ccc(/C=N/N(C)P(=S)(Oc4ccc(/C=C/P(=O)(O)O)cc4)Oc4ccc(/C=C/P(=O)(O)O)cc4)cc3)=N2)cc1)P(=S)(Oc1ccc(/C=C\P(=O)(O)O)cc1)Oc1ccc(/C=C/P(=O)(O)O)cc1 (stereo unspecified) | 250 | 6.4 | 1600 |
| CCCCCCCCCCCCCCCCNOC(CO)C(O)C(OC1OC(CO)C(O)C(O)C1O)C(O)CO.CCCCCCCCCCCCCCCCNOC(CO)C(O)C(OC1OC(CO)C(O)C(O)C1O)C(O)CO.CCCCCCCCCCCCCCCCNOC(CO)C(O)C(OC1OC(CO)C(O)C(O)C1O)C(O)CO.CCCCCCCCCCCCCCCCNOC(CO)C(O)C(OC1OC(CO)C(O)C(O)C1O)C(O)CO.CCCCCCCCCCCCCCCCNOC(CO)C(O)C(OC1OC(CO)C(O)C(O)C1O)C(O)CO.CCCCCCCCCCCCCCCCNOC(CO)C(O)C(OC1OC(CO)C(O)C(O)C1O)C(O)CO.CN(/N=C/c1ccc(OP2(Oc3ccc(/C=N/N(C)P(=S)(Oc4ccc(C(O)P(=O)(O)O)cc4)Oc4ccc(C(O)P(=O)(O)O)cc4)cc3)=NP(Oc3ccc(/C=N/N(C)P(=S)(Oc4ccc(C(O)P(=O)(O)O)cc4)Oc4ccc(C(O)P(=O)(O)O)cc4)cc3)(Oc3ccc(/C=N/N(C)P(=S)(Oc4ccc(C(O)P(=O)(O)O)cc4)Oc4ccc(C(O)P(=O)(O)O)cc4)cc3)=NP(Oc3ccc(/C=N/N(C)P(=S)(Oc4ccc(C(O)P(=O)(O)O)cc4)Oc4ccc(C(O)P(=O)(O)O)cc4)cc3)(Oc3ccc(/C=N/N(C)P(=S)(Oc4ccc(C(O)P(=O)(O)O)cc4)Oc4ccc(C(O)P(=O)(O)O)cc4)cc3)=N2)cc1)P(=S)(Oc1ccc(C(O)P(=O)(O)O)cc1)Oc1ccc(C(O)P(=O)(O)O)cc1 (stereo unspecified) | 210 | 4 | 1200 |
